These results are taken from patent publication US8476302B2, “α-ketoamide derivatives useful endothelial lipase inhibitors” (Janssen Pharmaceutica N.V., priority 2010, dated 2013).

“And” between values parts separate entries of the source, which are not always exact repeats. Identical values can stand only once.

Assay [1] deals with T1, human endothelial lipase (EL) (Homo sapiens, UniProt Q9Y5X9).
T1 construct: host or cells: cells expressing human endothelial lipase
T1 sequence (Q9Y5X9 21-500): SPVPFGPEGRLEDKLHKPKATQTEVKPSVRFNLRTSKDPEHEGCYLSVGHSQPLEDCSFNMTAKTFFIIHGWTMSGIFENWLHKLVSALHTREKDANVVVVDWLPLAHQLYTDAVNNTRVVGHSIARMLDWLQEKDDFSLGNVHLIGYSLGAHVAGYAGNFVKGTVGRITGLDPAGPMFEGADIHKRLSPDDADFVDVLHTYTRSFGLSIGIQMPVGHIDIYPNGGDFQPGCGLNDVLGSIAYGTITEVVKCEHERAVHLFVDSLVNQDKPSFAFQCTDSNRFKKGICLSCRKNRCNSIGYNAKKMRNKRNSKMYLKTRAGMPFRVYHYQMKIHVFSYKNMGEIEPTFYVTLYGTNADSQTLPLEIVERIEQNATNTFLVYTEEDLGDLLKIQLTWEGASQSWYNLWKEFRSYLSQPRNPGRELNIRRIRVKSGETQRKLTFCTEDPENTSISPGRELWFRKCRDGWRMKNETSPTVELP
The assay can be described thus: Endothelial Lipase Assay, cell surface lipase activity (human). Conditions: cells expressing human EL, PLA1 substrate 10 μM, fluorescence reaction rate; several values in a cell are repeat determinations. The format is cell-based. On the procedure:
(§1) Endothelial Lipase Assay (Human/Mouse)
(§2) To assay for cell surface lipase activity, cells expressing human endothelial lipase (EL) or LPL were plated in CellBIND® 384-well plates (Corning, Lowell, Mass.) in 25 μL serum free medium at a density of 2000 cells/well. After 18-24 hours incubation at 37° C., the medium was removed and replaced with 15 μL assay buffer [Hank's Buffered Saline Solution with 25 mM HEPES pH 7.2] and 15 μL PLA1 for a final concentration of 10 μM using a Multidrop reagent dispenser. Fluorescence signal was monitored for 30 min at 37° C. on a Safire II plate reader in kinetic mode (60 cycles, kinetic interval: 30 seconds) with an excitation wavelength of 490 nm and an emission wavelength of 515 nm. Linear regression of the fluorescence intensity collected from 480 to 1500 seconds was used to calculate the reaction rate (the slope) and the slopes were used to calculate IC50 values where appropriate. The amount of BODIPY-labeled product generated was calculated at the 30 min time point as determined from standard curve analysis of purified BODIPY FL C5. In all studies using the inhibitor Ebelactone B, consistent results were obtained when it was dissolved as a stock in DMSO, immediately before use.

For another assay, the target named is T2, Mouse EL (Mus musculus, UniProt Q9WVG5).
T2 construct: host or cells: not described for mouse EL
T2 sequence (Q9WVG5 21-500): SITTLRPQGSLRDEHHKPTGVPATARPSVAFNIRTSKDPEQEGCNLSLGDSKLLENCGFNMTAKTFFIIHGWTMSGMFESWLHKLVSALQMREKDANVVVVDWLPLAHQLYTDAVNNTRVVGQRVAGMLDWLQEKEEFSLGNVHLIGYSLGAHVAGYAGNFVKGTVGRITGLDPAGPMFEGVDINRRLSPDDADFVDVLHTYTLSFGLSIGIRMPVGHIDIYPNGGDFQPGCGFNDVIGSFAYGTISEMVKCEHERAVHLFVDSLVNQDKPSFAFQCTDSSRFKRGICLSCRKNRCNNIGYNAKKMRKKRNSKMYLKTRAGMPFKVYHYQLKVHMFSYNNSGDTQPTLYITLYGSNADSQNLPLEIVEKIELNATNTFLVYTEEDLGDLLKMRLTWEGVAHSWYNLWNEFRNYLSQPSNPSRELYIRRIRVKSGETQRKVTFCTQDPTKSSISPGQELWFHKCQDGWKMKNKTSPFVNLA
Kind of assay: Endothelial Lipase Assay, cell surface lipase activity (mouse). Format: cell-based. The conditions noted are these: PLA1 substrate 10 μM, fluorescence reaction rate, several values in a cell are repeat determinations. On the procedure: as §1, §2

In the case of `O=C(CCCCCCc1ccccc1)C(=O)NCc1nnc(-c2ccc(OCc3ccncc3)cc2)o1` [Compound 86], the half-inhibitory concentration (IC50) in assay [1] turned out to be 0.156 µM; against Mouse EL, 0.072 µM.
Taken in the same sequence, the figures for `O=C(CCCCCOc1cccc(F)c1F)C(=O)NCc1nnc(-c2ccc(Oc3ccccc3)cc2)o1` [Compound 102] were 1.97 µM and 0.809 µM.
For `O=C(CCCCCOc1ccccc1)C(=O)NCc1nnc(-c2ccccc2)o1` [Compound 46] the same measures were 8.75 µM and 6.51 µM.
For the molecule `O=C(CCCCCNc1ncccn1)C(=O)NCc1nnc(-c2ccc(OCc3ccccc3)cc2)o1` [Compound 176], the IC50 in assay [1] stood at 27.9 µM; against Mouse EL it was 27 µM.
Consider `O=C(CCCCCCc1ccccc1)C(=O)NCc1nnc(-c2ccccc2)o1` [Compound 1, 2-oxo-8-phenyl-N-((5-phenyl-1,3,4-oxadiazol-2-yl)methyl)octanamide], for which the half-inhibitory concentration (IC50) in assay [1] was 0.952 µM and 0.836 µM and 0.69 µM; on Mouse EL, 1.05 µM and 0.864 µM and 0.708 µM.
Consider `O=C(CCCCCCc1ccccc1)C(=O)NCc1nnc(-c2ccc(F)cc2)o1` [Compound 15], for which the IC50 in assay [1] turned out to be 0.735 µM; at Mouse EL, 1.02 µM.
For `O=C(CCCCCCc1ccccc1)C(=O)NCc1nnc(-c2ccc(NCc3ccc(F)c(F)c3)cc2)o1` [Compound 118] the same measures were 0.675 µM and 0.476 µM.
Taken in the same sequence, the figures for `O=C(CCCCCCc1ccc(F)nc1)C(=O)NCc1nnc(-c2ccc(OCc3ccncc3)cc2)s1` [Compound 159] were 0.24 µM and 0.174 µM.
For `O=C(CCCCCCc1ccccc1)C(=O)NCc1nnc(-c2ccc(OCc3cccc(Br)n3)cc2)s1` [Compound 162] the same measures were 1.34 µM and 0.202 µM.
Take `COc1cccc(C#CCCCC(=O)C(=O)NCc2nnc(-c3ccccc3)o2)c1` [Compound 40]: the IC50 (in assay [1]; at Mouse EL) was 33.3 µM in each case.
Turning to `O=C(CCCCCCc1ccccc1)C(=O)NCc1nnc(-c2ccc(OCc3ccccc3F)cc2)s1` [Compound 145], the half-inhibitory concentration (IC50) was determined as 0.312 µM in assay [1] and 0.168 µM against Mouse EL.
Taken in the same sequence, the figures for `O=C(CCCCCc1ccc(F)cc1)C(=O)NCc1nnc(-c2ccc3ccccc3c2)o1` [Compound 38] were 0.613 µM and 0.475 µM.
As for `O=C(CCCCCOc1cc(F)ccc1F)C(=O)NCc1nnc(-c2ccc(OCc3ccccc3)cc2)o1` [Compound 94], the IC50 was determined as 0.936 µM in assay [1] and 0.634 µM against Mouse EL.
Taken in the same sequence, the figures for `N#Cc1cccc(COc2ccc(-c3nnc(CNC(=O)C(=O)CCCCCCc4ccccc4)s3)cc2)n1` [Compound 163] were 0.974 µM and 0.236 µM.
For `COc1cccc(OCCCCCC(=O)C(=O)NCc2nnc(-c3ccccc3)o2)c1` [Compound 63] the same measures were 5.45 µM and 6.12 µM.
For `O=C(CCCCCCc1ccccc1)C(=O)NCc1nnc(-c2ccc(OCc3ccc4ccccc4n3)cc2)o1` [Compound 89] the same measures were 0.565 µM and 0.232 µM.
For `O=C(CCCCCCc1ccccc1)C(=O)NCc1nnc(-c2ccc(OCc3ccnc(F)c3)cc2)s1` [Compound 152], the half-inhibitory concentration (IC50) in assay [1] was 0.115 µM and 0.042 µM; against Mouse EL, 0.207 µM and 0.048 µM.
`NC(=O)c1cncc(CCCCCCC(=O)C(=O)NCc2nnc(-c3ccc(Oc4ccccc4)cc3)o2)c1` [Compound 142]: the concentration for half-maximal inhibition (IC50) in assay [1] came to 1.58 µM; on Mouse EL, 0.897 µM.
For `O=C(CCCCCCc1ccccc1)C(=O)NCc1nnc(-c2ccc(OCc3ccccc3)cc2)o1` [Compound 68] the same measures were 0.142 µM and 0.124 µM.
Taken in the same sequence, the figures for `O=C(CCCCCCc1ccccc1)C(=O)NCc1nnc(-c2ccc(OCn3nnc4ccccc43)cc2)o1` [Compound 104] were 0.23 µM and 0.181 µM.
For `O=C(CCCCCCc1cccnc1F)C(=O)NCc1nnc(-c2ccc(Oc3ccccc3)cc2)o1` [Compound 119] the same measures were 0.979 µM and 0.904 µM.
For `Cc1ccc(-c2nnc(CNC(=O)C(=O)CCCCCc3ccc(-c4ccccc4)cc3)o2)cc1` [Compound 37], the figures for the IC50 (in assay [1]; against Mouse EL) were 2.53 µM and 1.47 µM, respectively.
Taken in the same sequence, the figures for `COc1cccc(CCCCCCC(=O)C(=O)NCc2nnc(-c3ccc4ccccc4c3)o2)c1` [Compound 31] were 0.141 µM and 0.12 µM.
For `O=C(CCCCCCc1ccc(F)cc1)C(=O)NCc1nnc(-c2ccc3ccccc3c2)o1` [Compound 30] the same measures were 0.523 µM and 0.205 µM.
Taken in the same sequence, the figures for `O=C(CCCCCCc1ccc(F)nc1)C(=O)NCc1nnc(-c2ccc(Oc3ccccc3)cc2)o1` [Compound 127] were 0.308 µM and 0.281 µM.
Consider `CC(C)(C)OC(=O)N(Cc1cccnc1)c1ccc(-c2nnc(CNC(=O)C(=O)CCCCCCc3ccccc3)o2)cc1` [Compound 123], for which the IC50 amounted to 0.288 µM in assay [1] and 0.182 µM against Mouse EL.
Taken in the same sequence, the figures for `O=C(CCCCCCc1ccccc1)C(=O)NCc1nnc(-c2ccc(OCc3cccc(F)n3)cc2)o1` [Compound 121] were 0.471 µM and 0.187 µM.
`O=C(CCCCCOc1ccccc1)C(=O)NCc1nnc(-c2ccc3ccccc3c2)o1` [Compound 48]: the IC50 in assay [1] was found to be 1.96 µM; on Mouse EL, 1.71 µM.
Taken in the same sequence, the figures for `CN(Cc1ccccn1)c1ccc(-c2nnc(CNC(=O)C(=O)CCCCCCc3ccccc3)o2)cc1` [Compound 111] were 0.236 µM and 0.156 µM.
Taken in the same sequence, the figures for `O=C(CCCCCCc1ccccc1)C(=O)NCc1nnc(-c2cccc(Cl)c2)o1` [Compound 18] were 0.44 µM and 0.346 µM.
Taken in the same sequence, the figures for `Cc1cc(COc2ccc(-c3nnc(CNC(=O)C(=O)CCCCCCc4ccccc4)s3)cc2)ccn1` [Compound 174] were 0.078 µM and 0.051 µM.
With `O=C(CCCCC=Cc1ccccc1)C(=O)NCc1nnc(-c2ccc(Oc3ccccc3)cc2)o1` [Compound 143], the half-maximal inhibitory concentration (IC50) in assay [1] was determined as 7.69 µM; on Mouse EL, 11.1 µM.
Taken in the same sequence, the figures for `CN(C)C(=O)c1cccc(COc2ccc(-c3nnc(CNC(=O)C(=O)CCCCCCc4ccccc4)s3)cc2)c1` [Compound 150] were 0.092 µM and 0.048 µM.
With `O=C(CCCCCCc1ccccc1)C(=O)NCc1nnc(-c2ccc3ccccc3c2)o1` [Compound 27], the IC50 in assay [1] was 0.293 µM and 0.129 µM; against Mouse EL, 0.225 µM and 0.184 µM.
Regarding `O=C(CCCCCCc1ccc(F)nc1)C(=O)NCc1nnc(-c2ccc(OCc3ccccn3)cc2)s1` [Compound 167], the IC50 stood at 0.36 µM in assay [1] and 0.217 µM against Mouse EL.
Taken in the same sequence, the figures for `O=C(CCCCCOc1cc(F)cc(F)c1)C(=O)NCc1nnc(-c2ccc(Oc3ccccc3)cc2)o1` [Compound 95] were 1.06 µM and 0.56 µM.
For `N#Cc1ccc(CCCCCCC(=O)C(=O)NCc2nnc(-c3ccccc3)o2)cc1` [Compound 44] the same measures were 0.951 µM and 0.641 µM.
Taken in the same sequence, the figures for `O=C(CCCCCCc1ccccc1)C(=O)NCc1nnc(-c2ccc(OCc3ccccc3F)cc2)o1` [Compound 85] were 0.223 µM and 0.169 µM.
With `O=C(CCCCCCc1ccccc1)C(=O)NCc1nnc(-c2cccc(C(F)(F)F)c2)o1` [Compound 21], the IC50 in assay [1] was determined as 0.684 µM; against Mouse EL, 0.654 µM.
Take `Cc1ccc(-c2nnc(CNC(=O)C(=O)CCCCCc3ccc(F)cc3)o2)cc1` [Compound 39]: the IC50 was 0.643 µM in assay [1] and 0.772 µM at Mouse EL.
For `COC(=O)c1cccc(COc2ccc(-c3nnc(CNC(=O)C(=O)CCCCCCc4ccccc4)o3)cc2)c1` [Compound 83] the same measures were 0.121 µM and 0.064 µM.

The term IC50 denotes the point on the concentration scale where inhibition reaches its midpoint. Low values mean greater potency in that assay, high ones weaker potency in that assay.
